Assay results published in patent US20240342685A1, “ABSORBENT COMPOUNDS FOR CAPTURING CARBON DIOXIDE” (The Regents of the University of California, priority 2021, published 2024).
Where two headings read alike, the source gives them in different places.

Key:
[1] = cited from earlier work
[2] = Aspen Plus absorber/stripper process model, CO2 vapor liquid equilibrium; conditions: 11% mole fraction
From the text: For example, the suitability of a PEP variant for non-enzymatic carbon capture can be evaluated by modeling. The Electric Power Research Institute (EPRI; Palo Alto, CA) maintains and operates Aspen Plus process models based on the absorber/stripper configuration shown in FIG. 21 and standard operational parameters (e.g., as described in the Examples). These models are configured to accept generalized solvent (absorbent) properties and calculate the resulting energy penalty. Model inputs can include the solubility, viscosity, and heat capacity of the PEP variant, as well as the CO2 vapor liquid equilibrium (VLE) of the underlying carbon capture reaction equilibrium (absorption/desorption). VLE describes the number of moles CO2 per unit volume solution absorbed via reaction and dissolution as a function of CO2 partial pressure above solution. […] At higher temperature (e.g., 120° C. stripper), reactants are favored and HCO3 desorbs, releasing CO2 back into the gas phase for capture and compression. The difference ACO2 between these temperature extremes determines the absorption capacity of the solvent, or cyclic capacity of the absorber/stripper system.
These models can be used to quantify the energy penalty of a PEP variant for carbon capture chemistry relative to the MEA benchmark. […] The improvement can be evaluated at the temperatures of the absorber (40° C.) and stripper (120° C.).

[3] = Shear viscosity by Green-Kubo relation, MD simulation; conditions: aqueous solution
Experimental: These simulations were performed under the same conditions and with the same forcefield as the PEP simulations. The shear viscosity of a liquid can be computed through several different atomistic simulation methods. […] In this method, the shear viscosity is obtained from the integral over time of the pressure tensor autocorrelation function: where V is the volume of the system, kB is the Boltzmann constant, T is temperature, Pxy denotes the element xy of the pressure tensor, and the angle bracket refers to the ensemble average. Viscosity plays an important role in pumping costs for moving aqueous PEP solutions between the absorber and stripper.

[4] = in water at 298 K; non-reactive MD literature; cited from earlier work
[5] = pure water; cited from earlier work

| SMILES | Enthalpy of Solution, Literature value ([1]; 3 m to 4 m) | Enthalpy of Solution, Literature value ([1]; 3 m to 5 m) | Enthalpy of Solution, Literature value ([1]; 4 m to 5 m) | also measured |
| --- | --- | --- | --- | --- |
| CC(=O)O [Acetic Acid] | -0.0461 kcal/mol | -0.0418 kcal/mol | -0.088 kcal/mol |  |
| O=CO [Formic Acid] | 0 kcal/mol | 0 kcal/mol | 0 kcal/mol |  |
| NCCO [MEA, monoethanolamine] |  |  |  | CO2 remaining bound in solution during absorber-stripper cycling ([2]; CCNG): 16%; CO2 remaining bound in solution during absorber-stripper cycling ([2]; SCPC): 29% |
| C=C(OP(=O)(O)O)C(=O)O [PEP, phosphoenolpyruvate] |  |  |  | viscosity relative to the standard MEA solution ([3]; 45 to 55 wt %): roughly triple; real viscosity ([3]; 45 to 55 wt % (9.8 mol %), estimated): about 3 mPa*s |
| O=C(O)O [bicarbonate] |  |  |  | diffusion coefficient, published literature [4]: 1.17×10^−9 m^2s^−1 |
| O [water] |  |  |  | viscosity, expected value [5]: around 0.79 mPa·s |
